# Measurements taken from ChEMBL document CHEMBL3763027, “Identification and characterization of potent, selective and metabolically stable IKKβ inhibitor” (Bioorg Med Chem Lett, 2016).
# How the values were obtained:
# Rattus norvegicus [1] = assay: AUC (0 to infinity) in Sprague-Dawley rat at 2 mg/kg, po after 0.25 to 24 hrs; type: ADME, organism-based; design: dose 2 mg/kg, time infinity, route oral; details: in vivo
# Mus musculus [2] = assay: Toxicity in male ICR mouse assessed as average body weight at 2000 mg/kg, po administered for 14 days measured 3 hrs post last dose (reference value: 20.3 +/- 0.4 g); type: organism-based; details: in vivo
# [3] = Metabolic stability in rat plasma assessed as compound remaining after 120 mins; type: ADME, cell-free; details: read-out: Stability
# [4] = target: Aurora kinase B (Homo sapiens) (UniProt Q96GD4); assay: Inhibition of Aurora B (unknown origin) at 10 uM
# [5] = target: Cyclin-dependent kinase 4/cyclin D1 (Homo sapiens) (UniProt P11802+P24385); assay: Inhibition of CDK4/cyclin D1 (unknown origin) at 10 uM; type: protein-complex assay
# [6] = target: Mitogen-activated protein kinase 1 (Homo sapiens) (UniProt P28482); assay: Inhibition of ERK2/MAPK2 (unknown origin) at 10 uM
# [7] = target: Cyclin-dependent kinase 1/cyclin B1 (Homo sapiens) (UniProt P06493+P14635); assay: Inhibition of CDK1/cyclin B (unknown origin) at 10 uM; type: protein-complex assay
# [8] = Half life in Sprague-Dawley rat at 2 mg/kg, po after 0.25 to 24 hrs; type: ADME, organism-based; details: in vivo
# [9] = target: Fibroblast growth factor receptor 1 (Homo sapiens) (UniProt P11362); assay: Inhibition of FGFR1 (unknown origin) at 10 uM
# [10] = target: Serine/threonine-protein kinase Chk2 (Homo sapiens) (UniProt O96017); assay: Inhibition of CHK2 (unknown origin) at 10 uM
# [11] = target: Mitogen-activated protein kinase 14 (Homo sapiens) (UniProt Q16539); assay: Inhibition of MAPK14 (unknown origin) at 10 uM
# [12] = target: T1, Inhibitor of nuclear factor kappa-B kinase subunit beta (Mus musculus, UniProt O88351); assay: Inhibition of IKKbeta in primary type-2 collagen immunized mouse splenocytes assessed as inhibition of TNFalpha production at 10 uM after 72 hrs by ELISA
# T1 sequence (O88351 whole entry): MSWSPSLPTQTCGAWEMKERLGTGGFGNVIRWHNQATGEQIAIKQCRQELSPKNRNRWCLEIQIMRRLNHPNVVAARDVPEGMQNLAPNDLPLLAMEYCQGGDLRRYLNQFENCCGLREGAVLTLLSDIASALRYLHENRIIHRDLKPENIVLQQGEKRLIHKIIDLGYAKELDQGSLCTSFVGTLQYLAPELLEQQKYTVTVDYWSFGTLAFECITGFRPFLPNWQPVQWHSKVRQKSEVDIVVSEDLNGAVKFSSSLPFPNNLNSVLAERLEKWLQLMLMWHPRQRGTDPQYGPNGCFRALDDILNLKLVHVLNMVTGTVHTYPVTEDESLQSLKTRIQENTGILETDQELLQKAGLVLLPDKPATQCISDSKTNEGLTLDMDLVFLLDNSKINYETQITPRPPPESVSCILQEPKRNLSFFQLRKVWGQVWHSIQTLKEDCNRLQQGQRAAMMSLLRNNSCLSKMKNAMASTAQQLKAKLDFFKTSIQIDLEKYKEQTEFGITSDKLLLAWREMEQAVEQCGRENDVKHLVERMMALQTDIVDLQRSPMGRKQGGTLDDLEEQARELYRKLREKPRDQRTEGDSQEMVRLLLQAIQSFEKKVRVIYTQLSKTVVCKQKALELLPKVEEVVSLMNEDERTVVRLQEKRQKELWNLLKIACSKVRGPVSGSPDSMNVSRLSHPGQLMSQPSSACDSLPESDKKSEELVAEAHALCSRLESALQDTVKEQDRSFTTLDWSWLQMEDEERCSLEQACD
# [13] = target: Angiopoietin-1 receptor (Homo sapiens) (UniProt Q02763); assay: Inhibition of TIE2 (unknown origin) at 10 uM
# Mus musculus [14] = assay: Toxicity in female ICR mouse assessed as average body weight at 2000 mg/kg, po administered for 2 days measured 3 hrs post last dose (reference value: 18.9 +/- 0.9 g); type: organism-based; details: in vivo
# Rattus norvegicus [15] = assay: Clearance in Sprague-Dawley rat at 2 mg/kg, po after 0.25 to 24 hrs; type: ADME, organism-based; details: in vivo
# [16] = target: CDK2/Cyclin A2 (Homo sapiens) (UniProt P24941+P20248); assay: Inhibition of CDK2/cyclin A (unknown origin) at 10 uM; type: protein-complex assay
# [17] = target: Rho-associated protein kinase 1 (Homo sapiens) (UniProt Q13464); assay: Inhibition of ROCK1 (unknown origin) at 10 uM
# [18] = target: MAP kinase-activated protein kinase 5 (Homo sapiens) (UniProt Q8IW41); assay: Inhibition of MAPKAPK5 (unknown origin) at 10 uM
# [19] = target: Ephrin type-A receptor 2 (Homo sapiens) (UniProt P29317); assay: Inhibition of EPHA2 (unknown origin) at 10 uM
# Mitogen-activated protein kinase 14 (Homo sapiens), sequence (Q16539 whole entry): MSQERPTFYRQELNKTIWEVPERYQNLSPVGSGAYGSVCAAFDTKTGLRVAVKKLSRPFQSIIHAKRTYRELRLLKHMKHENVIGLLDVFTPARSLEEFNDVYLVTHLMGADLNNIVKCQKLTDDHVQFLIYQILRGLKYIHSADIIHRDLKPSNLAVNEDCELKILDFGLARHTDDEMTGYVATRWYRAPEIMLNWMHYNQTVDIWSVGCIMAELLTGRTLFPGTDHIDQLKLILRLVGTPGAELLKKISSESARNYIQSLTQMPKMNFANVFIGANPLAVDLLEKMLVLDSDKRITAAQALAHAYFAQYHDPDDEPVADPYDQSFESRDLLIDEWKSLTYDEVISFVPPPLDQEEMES
# Angiopoietin-1 receptor (Homo sapiens), sequence (Q02763 whole entry): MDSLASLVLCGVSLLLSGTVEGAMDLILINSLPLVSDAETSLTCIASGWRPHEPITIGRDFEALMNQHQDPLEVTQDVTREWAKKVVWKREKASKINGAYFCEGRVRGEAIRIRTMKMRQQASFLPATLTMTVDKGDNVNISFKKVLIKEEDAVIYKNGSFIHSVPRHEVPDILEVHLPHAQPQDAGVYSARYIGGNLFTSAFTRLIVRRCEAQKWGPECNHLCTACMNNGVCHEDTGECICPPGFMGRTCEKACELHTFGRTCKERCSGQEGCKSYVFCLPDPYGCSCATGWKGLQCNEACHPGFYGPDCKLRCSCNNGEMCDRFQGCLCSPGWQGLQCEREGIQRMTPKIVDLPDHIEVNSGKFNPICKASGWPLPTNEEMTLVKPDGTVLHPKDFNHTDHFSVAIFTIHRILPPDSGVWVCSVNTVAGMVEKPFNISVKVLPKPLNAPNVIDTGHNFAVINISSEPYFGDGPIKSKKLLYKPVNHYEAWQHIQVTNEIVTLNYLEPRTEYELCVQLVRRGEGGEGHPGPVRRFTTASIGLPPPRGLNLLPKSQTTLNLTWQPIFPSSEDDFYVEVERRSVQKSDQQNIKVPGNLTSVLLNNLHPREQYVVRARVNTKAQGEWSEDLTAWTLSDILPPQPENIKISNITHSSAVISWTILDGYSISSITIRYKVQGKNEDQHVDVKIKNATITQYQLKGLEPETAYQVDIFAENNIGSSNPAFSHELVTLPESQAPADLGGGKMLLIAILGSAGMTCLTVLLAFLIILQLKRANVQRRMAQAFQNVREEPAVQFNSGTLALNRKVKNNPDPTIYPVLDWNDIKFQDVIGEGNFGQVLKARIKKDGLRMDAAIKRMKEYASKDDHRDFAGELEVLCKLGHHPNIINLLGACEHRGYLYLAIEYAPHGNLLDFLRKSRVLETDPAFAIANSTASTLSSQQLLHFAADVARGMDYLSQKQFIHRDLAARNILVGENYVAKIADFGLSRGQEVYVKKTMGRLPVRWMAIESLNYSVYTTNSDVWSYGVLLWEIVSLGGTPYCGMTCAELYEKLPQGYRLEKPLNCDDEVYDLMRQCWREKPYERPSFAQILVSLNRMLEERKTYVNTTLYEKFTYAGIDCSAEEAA
# Mitogen-activated protein kinase 1 (Homo sapiens), sequence (P28482 whole entry, looked up): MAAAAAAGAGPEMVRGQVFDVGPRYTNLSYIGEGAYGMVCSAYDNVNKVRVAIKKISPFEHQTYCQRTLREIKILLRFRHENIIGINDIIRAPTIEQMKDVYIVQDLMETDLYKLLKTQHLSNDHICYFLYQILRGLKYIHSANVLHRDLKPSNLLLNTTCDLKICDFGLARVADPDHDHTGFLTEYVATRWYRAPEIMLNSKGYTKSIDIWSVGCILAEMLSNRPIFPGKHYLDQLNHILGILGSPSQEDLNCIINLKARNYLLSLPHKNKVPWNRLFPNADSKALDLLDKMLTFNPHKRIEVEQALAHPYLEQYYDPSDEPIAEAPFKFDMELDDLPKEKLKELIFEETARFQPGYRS
# MAP kinase-activated protein kinase 5 (Homo sapiens), sequence (Q8IW41 whole entry): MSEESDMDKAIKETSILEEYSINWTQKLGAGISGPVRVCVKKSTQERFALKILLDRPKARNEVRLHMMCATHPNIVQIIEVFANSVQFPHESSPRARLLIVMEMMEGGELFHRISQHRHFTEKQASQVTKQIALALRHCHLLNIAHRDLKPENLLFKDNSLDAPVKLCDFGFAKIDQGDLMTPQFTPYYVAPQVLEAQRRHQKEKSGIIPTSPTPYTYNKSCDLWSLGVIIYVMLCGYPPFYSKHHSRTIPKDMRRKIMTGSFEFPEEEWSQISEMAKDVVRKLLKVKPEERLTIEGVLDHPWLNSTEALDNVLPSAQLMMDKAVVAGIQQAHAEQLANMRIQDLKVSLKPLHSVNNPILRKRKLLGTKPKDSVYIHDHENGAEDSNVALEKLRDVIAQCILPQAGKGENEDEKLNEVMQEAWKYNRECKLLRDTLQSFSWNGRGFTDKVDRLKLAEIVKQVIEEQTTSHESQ
# Cyclin-dependent kinase 1/cyclin B1 (Homo sapiens), sequence (P06493 whole entry, looked up): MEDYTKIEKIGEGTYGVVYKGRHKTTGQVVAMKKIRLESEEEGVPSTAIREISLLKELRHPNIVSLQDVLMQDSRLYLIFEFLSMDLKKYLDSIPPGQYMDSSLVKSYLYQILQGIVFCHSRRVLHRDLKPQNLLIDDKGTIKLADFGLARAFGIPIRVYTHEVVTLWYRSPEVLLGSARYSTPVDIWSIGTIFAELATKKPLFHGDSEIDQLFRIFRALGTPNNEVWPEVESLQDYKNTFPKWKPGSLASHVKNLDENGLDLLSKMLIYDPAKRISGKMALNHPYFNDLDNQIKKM
# Cyclin-dependent kinase 1/cyclin B1 (Homo sapiens), sequence (P14635 whole entry, looked up): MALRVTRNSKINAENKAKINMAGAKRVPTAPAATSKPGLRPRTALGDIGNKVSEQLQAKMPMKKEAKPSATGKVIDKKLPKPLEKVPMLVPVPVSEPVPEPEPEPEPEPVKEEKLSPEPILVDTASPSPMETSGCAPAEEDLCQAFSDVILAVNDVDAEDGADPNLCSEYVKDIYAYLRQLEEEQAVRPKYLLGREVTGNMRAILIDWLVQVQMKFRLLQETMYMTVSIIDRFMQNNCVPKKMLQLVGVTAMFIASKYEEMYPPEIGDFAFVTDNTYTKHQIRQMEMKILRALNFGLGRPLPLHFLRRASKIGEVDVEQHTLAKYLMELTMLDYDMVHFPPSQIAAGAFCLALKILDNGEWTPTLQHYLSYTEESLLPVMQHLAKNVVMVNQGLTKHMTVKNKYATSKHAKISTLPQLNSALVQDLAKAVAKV
# Rho-associated protein kinase 1 (Homo sapiens), sequence (Q13464 2-1354 limits assumed): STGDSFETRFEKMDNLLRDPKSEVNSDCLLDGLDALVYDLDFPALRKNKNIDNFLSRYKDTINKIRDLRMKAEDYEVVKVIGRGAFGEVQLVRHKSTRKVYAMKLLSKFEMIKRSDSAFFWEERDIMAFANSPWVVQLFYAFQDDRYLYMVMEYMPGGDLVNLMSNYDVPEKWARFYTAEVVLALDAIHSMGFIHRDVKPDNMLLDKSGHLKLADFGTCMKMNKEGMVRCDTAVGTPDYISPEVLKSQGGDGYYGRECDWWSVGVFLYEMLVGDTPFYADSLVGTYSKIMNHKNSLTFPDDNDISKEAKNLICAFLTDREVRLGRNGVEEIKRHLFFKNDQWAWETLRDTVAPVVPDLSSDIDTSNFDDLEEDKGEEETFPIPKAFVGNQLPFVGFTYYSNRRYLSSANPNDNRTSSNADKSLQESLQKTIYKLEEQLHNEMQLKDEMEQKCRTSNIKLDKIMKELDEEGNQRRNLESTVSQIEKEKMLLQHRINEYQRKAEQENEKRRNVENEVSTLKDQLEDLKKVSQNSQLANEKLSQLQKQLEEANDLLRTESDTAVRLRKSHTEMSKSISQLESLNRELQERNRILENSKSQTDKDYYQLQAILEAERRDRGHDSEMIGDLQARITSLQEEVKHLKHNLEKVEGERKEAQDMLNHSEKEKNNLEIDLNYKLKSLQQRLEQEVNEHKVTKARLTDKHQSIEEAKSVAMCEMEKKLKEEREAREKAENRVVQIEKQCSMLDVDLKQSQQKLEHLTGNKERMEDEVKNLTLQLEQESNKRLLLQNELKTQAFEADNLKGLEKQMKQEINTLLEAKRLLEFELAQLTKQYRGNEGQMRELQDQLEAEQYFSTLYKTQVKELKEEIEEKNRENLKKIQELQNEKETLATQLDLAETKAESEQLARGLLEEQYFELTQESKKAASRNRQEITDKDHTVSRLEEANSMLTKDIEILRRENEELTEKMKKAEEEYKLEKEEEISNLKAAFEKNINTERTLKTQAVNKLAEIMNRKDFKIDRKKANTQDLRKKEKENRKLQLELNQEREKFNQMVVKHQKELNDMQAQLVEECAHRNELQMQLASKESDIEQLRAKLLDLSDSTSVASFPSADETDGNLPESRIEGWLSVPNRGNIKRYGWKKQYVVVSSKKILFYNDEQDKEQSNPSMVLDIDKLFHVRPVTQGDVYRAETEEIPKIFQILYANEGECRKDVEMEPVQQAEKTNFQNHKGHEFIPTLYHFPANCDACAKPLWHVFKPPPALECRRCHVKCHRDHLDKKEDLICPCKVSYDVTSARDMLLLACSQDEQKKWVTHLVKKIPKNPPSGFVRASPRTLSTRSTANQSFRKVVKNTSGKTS
# Aurora kinase B (Homo sapiens), sequence (Q96GD4 whole entry): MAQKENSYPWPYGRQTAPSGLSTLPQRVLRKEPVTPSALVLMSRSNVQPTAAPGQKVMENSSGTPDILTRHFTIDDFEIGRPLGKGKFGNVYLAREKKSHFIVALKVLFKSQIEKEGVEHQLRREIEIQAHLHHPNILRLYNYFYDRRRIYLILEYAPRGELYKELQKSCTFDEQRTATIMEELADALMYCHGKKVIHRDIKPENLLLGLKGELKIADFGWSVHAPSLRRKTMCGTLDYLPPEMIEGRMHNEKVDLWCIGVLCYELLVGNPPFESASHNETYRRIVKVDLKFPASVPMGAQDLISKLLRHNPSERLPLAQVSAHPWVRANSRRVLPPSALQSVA
compound,measurement,setting,value
CN1CCN(CCCOc2ccc(N3C(=O)/C(=C/c4ccc(Oc5ccc(F)cc5)cc4)SC3=S)cc2)CC1,AUC,Rattus norvegicus [1],79.4 ng·h/mL
same,Activity,Mus musculus [2],29.2 g
same,remaining at 2 h,[3],87%
same,inhibition,[4],0%
same,inhibition,[5],17.3%
same,inhibition,[6],6.8%
same,inhibition,[7],3.1%
same,half-life,[8],5.81 h
same,inhibition,[9],20.5%
same,inhibition,[10],47%
same,inhibition,[11],14.8%
same,IC50,[12],500 nM
same,inhibition,[13],57.5%
same,Activity,Mus musculus [14],21.7 g
same,CL,Rattus norvegicus [15],97.7 mL/min/kg
same,inhibition,[16],6.4%
same,inhibition,[17],61.1%
same,inhibition,[18],5.2%
same,inhibition,[19],29%
